The record followed here is article PMC4858680, “A platinum-based hybrid drug design approach to circumvent acquired resistance to molecular targeted tyrosine kinase inhibitors” (Scientific Reports, 2016).

One may read the IC50 as the concentration needed to halve the response being measured.

One series addresses LTK (Homo sapiens, UniProt P29376). Description: biochemical. The note with it: read-out: Percent control.
The target of series [1] is ABL1(F317I)-phosphorylated (Homo sapiens, UniProt P00519, F317I). Description: biochemical. The note with it: read-out: Percent control.
The next series concerns the target PDGFRB (Homo sapiens, UniProt P09619). Description: biochemical. The following applies: read-out: Percent control.
For another series, the target named is ROS1 (Homo sapiens, UniProt P08922). Description: biochemical. The following applies: read-out: Percent control.
The target in series [2] is ABL1(Q252H)-nonphosphorylated (Homo sapiens, UniProt P00519, Q252H). Description: biochemical. The following applies: read-out: Percent control.
The next series addresses T1, EPHB6 (Homo sapiens, UniProt O15197).
T1 sequence (O15197 32-1021): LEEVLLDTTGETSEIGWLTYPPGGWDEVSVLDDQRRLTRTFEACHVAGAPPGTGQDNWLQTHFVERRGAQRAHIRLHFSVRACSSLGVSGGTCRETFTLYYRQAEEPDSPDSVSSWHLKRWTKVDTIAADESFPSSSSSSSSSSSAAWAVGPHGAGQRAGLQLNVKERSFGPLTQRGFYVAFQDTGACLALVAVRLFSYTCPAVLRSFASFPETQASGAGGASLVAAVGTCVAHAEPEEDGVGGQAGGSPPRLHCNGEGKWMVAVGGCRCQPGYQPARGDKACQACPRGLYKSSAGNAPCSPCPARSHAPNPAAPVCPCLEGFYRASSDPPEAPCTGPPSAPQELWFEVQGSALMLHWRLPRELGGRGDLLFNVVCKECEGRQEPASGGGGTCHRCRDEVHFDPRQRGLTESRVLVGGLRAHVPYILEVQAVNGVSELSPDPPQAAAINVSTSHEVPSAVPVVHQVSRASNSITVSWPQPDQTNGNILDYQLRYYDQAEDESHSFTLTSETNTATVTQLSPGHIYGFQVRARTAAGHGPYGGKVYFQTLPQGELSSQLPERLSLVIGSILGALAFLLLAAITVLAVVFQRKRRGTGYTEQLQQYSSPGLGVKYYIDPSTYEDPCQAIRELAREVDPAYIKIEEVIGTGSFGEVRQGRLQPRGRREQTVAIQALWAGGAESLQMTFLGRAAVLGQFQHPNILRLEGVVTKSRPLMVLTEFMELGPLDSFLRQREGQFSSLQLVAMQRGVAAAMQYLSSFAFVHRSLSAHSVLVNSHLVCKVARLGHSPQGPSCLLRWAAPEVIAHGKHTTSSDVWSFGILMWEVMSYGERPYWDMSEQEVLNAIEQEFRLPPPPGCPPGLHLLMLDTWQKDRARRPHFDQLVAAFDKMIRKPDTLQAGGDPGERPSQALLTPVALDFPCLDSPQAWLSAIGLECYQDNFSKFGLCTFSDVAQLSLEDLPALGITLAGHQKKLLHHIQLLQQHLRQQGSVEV
The series is described as follows: biochemical. The note with it: read-out: Percent control.

In another series the test system is H1975. The series is described as follows: Anticancer activity (cytotoxicity) in NSCLC cell line. The following applies: Homo sapiens, NCI-H1975, read-out: Anticancer activity (IC50) H1975. In kind it is cell-based.
Series [3] addresses ABL1(F317L)-nonphosphorylated (Homo sapiens, UniProt P00519, F317L). Description: biochemical. The following applies: read-out: Percent control.
The target in a further series is FRK (Homo sapiens, UniProt P42685). Description: biochemical. The note with it: read-out: Percent control.
The target of another series is T2, AXL (Homo sapiens, UniProt P30530).
T2 sequence (P30530 26-894): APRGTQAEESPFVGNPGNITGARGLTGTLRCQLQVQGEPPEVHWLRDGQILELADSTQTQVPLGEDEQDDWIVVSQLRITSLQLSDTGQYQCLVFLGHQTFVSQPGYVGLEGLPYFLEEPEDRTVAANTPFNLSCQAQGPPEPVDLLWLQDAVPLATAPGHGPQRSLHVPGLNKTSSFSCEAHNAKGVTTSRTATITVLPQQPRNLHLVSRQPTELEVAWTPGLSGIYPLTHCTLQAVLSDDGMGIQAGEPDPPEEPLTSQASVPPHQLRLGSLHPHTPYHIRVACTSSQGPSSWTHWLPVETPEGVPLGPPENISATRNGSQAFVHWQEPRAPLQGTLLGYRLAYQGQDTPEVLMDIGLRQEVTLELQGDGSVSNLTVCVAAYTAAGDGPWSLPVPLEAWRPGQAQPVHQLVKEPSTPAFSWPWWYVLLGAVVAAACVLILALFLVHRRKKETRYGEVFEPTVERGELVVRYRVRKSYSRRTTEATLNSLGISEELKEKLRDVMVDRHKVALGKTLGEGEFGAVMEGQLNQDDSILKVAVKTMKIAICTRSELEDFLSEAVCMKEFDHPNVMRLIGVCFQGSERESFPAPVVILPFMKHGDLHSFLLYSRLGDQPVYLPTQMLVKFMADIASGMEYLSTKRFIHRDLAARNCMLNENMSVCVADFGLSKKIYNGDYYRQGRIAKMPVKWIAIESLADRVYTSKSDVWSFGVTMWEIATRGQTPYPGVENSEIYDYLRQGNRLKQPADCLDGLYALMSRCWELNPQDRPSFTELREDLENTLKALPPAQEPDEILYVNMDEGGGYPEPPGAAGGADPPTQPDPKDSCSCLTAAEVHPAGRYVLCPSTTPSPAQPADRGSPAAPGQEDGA
Description: biochemical. The note with it: read-out: Percent control.

The target in another series is SYK (Homo sapiens, UniProt P43405). The following applies: 10 μM.
Series [4] is described as follows: Drug accumulation in organs of BALB/c mice. In kind it is in vivo. The note with it: intravenous 12.5 mg/kg, 30 min.
Series [5] deals with ABL1(E255K)-phosphorylated (Homo sapiens, UniProt P00519, E255K). The following applies: 10 μM.
A further series deals with ABL1-nonphosphorylated (Homo sapiens, UniProt P00519). The note with it: 10 μM.
For another series, the target named is EGFR(L861Q) (Homo sapiens, UniProt P00533, L861Q). The series is described as follows: biochemical. The note with it: read-out: Percent control.
The target of the next series is EGFR(T790M) (Homo sapiens, UniProt P00533, T790M). Description: biochemical. The following applies: read-out: Percent control.

Structures are written as SMILES.

Sequence of LTK (P29376 17-864): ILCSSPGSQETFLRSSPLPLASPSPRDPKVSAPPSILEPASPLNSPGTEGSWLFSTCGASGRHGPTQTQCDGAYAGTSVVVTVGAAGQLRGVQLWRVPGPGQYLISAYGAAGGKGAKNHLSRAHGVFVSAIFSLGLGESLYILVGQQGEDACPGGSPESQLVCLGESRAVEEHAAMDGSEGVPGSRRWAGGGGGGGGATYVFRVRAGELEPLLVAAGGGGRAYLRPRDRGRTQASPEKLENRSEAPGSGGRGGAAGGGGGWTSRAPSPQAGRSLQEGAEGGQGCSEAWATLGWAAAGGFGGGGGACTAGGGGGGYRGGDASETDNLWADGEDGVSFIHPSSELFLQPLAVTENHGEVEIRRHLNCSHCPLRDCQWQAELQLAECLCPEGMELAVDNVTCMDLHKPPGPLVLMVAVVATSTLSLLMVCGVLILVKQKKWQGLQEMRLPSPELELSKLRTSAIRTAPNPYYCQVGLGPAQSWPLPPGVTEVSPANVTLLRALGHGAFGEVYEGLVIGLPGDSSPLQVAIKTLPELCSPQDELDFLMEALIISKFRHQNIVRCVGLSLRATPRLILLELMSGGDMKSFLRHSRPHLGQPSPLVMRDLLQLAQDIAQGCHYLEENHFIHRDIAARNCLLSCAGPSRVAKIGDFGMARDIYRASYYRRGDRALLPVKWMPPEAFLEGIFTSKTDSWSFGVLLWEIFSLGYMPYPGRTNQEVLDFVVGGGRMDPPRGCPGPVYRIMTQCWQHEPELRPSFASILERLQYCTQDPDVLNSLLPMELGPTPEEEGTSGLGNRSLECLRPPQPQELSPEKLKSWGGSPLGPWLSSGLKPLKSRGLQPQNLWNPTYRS
Sequence of ROS1 (P08922 28-2347): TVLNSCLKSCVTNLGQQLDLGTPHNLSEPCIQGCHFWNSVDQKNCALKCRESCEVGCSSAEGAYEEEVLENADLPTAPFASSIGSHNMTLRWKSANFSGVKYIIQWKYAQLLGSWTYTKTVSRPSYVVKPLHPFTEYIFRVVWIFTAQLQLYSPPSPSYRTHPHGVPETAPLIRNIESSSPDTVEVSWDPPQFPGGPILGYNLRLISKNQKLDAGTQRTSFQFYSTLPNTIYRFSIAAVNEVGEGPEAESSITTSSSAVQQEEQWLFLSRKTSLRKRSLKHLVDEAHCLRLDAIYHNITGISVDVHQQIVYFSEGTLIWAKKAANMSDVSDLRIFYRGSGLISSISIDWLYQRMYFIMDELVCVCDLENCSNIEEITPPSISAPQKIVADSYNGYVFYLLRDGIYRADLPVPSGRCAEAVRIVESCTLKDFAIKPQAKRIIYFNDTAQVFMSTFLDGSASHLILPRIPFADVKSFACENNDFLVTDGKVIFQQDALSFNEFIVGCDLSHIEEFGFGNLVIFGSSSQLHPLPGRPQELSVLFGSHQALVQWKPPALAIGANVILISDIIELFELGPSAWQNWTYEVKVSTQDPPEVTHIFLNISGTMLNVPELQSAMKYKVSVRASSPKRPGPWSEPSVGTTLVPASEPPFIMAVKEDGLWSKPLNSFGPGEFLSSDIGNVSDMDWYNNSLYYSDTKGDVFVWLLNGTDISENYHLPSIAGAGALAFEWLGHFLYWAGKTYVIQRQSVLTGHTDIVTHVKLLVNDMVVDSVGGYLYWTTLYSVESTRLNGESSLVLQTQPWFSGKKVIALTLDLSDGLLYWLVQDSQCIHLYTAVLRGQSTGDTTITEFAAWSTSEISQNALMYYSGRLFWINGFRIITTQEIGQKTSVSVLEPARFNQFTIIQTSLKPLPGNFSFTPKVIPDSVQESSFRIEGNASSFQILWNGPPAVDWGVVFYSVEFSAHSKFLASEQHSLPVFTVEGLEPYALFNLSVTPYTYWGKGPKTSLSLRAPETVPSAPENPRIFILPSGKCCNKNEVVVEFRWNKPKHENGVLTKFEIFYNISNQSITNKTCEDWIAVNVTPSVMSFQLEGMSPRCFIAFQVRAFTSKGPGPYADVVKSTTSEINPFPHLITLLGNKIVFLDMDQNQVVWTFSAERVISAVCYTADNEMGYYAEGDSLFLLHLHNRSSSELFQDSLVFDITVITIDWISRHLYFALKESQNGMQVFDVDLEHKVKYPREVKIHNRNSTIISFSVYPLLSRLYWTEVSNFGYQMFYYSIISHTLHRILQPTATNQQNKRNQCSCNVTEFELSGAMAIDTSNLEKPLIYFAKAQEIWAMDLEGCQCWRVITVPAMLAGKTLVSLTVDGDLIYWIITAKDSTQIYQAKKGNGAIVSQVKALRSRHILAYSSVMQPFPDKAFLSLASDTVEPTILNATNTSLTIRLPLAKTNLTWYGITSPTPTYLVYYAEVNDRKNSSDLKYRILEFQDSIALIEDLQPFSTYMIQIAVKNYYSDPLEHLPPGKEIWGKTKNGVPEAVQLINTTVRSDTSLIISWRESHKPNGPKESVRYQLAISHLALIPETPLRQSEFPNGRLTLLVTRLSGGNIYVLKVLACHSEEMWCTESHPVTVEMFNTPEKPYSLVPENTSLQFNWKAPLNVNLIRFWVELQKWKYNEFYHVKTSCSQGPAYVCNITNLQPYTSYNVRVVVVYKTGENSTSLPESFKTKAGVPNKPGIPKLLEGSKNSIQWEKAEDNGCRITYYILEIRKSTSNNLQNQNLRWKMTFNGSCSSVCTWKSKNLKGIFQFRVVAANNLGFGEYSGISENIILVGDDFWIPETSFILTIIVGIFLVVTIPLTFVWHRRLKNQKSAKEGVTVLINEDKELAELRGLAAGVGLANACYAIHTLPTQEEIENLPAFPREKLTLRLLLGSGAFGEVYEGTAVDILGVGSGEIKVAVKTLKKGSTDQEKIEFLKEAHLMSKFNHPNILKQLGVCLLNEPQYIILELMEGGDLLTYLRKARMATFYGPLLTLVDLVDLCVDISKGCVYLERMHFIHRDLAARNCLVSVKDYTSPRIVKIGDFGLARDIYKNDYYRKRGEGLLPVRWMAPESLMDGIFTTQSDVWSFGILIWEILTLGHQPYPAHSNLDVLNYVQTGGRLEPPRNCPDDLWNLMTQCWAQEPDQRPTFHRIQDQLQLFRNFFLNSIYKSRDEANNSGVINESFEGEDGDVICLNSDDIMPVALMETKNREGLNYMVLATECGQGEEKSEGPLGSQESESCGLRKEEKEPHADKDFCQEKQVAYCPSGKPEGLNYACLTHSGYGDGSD
Sequence of PDGFRB (P09619 33-1106): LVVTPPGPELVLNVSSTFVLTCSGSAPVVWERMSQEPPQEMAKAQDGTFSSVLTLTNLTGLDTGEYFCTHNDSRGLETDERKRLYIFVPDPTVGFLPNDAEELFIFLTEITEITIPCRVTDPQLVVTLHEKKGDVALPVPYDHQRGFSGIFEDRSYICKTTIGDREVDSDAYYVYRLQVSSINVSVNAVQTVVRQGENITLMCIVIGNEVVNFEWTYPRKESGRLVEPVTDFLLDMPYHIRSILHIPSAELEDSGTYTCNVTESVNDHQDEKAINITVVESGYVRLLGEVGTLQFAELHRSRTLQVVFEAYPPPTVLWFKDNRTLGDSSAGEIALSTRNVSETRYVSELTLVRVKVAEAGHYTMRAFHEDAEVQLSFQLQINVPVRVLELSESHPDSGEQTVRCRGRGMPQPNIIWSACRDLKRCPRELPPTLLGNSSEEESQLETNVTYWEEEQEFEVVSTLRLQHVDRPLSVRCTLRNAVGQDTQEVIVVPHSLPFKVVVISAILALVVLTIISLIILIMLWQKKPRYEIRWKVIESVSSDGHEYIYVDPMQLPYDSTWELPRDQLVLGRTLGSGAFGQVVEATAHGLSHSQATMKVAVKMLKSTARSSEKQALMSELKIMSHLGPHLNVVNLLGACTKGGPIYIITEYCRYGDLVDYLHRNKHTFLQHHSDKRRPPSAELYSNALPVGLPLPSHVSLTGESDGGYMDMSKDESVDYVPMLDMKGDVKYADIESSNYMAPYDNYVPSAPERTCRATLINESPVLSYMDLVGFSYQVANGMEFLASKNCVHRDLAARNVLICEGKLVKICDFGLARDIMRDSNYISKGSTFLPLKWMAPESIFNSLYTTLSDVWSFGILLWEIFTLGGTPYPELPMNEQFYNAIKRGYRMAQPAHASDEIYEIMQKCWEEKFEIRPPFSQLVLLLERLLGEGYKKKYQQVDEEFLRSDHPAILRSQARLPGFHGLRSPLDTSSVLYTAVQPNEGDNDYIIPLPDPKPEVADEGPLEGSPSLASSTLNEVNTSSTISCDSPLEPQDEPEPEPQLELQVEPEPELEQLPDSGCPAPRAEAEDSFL
Sequence of FRK (P42685 whole entry): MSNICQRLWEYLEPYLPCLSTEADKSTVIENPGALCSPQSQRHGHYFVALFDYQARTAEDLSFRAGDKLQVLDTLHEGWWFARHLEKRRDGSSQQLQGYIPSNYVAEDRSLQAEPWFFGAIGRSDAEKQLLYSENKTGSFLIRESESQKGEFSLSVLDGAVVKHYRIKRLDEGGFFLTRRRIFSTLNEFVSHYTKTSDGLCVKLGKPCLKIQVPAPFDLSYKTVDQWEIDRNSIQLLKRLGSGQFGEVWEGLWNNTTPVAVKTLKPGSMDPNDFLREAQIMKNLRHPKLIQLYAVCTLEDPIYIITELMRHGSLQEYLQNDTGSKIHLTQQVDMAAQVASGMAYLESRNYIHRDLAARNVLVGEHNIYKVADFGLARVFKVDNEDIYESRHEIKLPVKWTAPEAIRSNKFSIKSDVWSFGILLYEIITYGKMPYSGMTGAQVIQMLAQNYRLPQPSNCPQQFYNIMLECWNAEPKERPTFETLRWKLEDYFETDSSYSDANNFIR

For the compound `C#Cc1cccc(Nc2ncnc3cc(OCCOC)c(OCCOC)cc23)c1` [Erlotinib], the remaining activity at 10 µM on LTK was determined as 8.2%; in series [1] it was 9.9%; on PDGFRB, 12.3%; at ROS1, 100%; in [2], 2.2%; at EPHB6, 14.5%. For the same compound, the remaining activity at 10 µM in [3] turned out to be 6%. For the same compound, the IC50 in the series with H1975 amounted to 11.8 ± 3.19 µM.

With `COc1cc2c(Nc3ccc(Br)cc3F)ncnc2cc1OCC1CCN(C)CC1` [Vandetanib, reference compound], the remaining activity at 10 µM on LTK was 5.2%; on FRK, 1.7%; on ROS1, 100%; on EPHB6, 0.8%; at AXL it was 2.4%. Besides, in the series with H1975, the IC50 came out at 13.8 ± 2.06 µM.

In the case of `COc1cc2c(Nc3ccc(Br)cc3F)[n+]([Pt-2]3([Cl])[NH2+]C4CCCCC4[NH2+]3)cnc2cc1OCC1CCN(C)CC1` (centres unmarked) [3b, oxaliplatin-vandetanib], on SYK, the Percent control worked out at 85%.

As to `C#Cc1cccc(Nc2c3cc(OCCOC)c(OCCOC)cc3nc[n+]2[Pt@SP2-2]([NH3+])([NH3+])[Cl])c1` [2a, cisplatin-erlotinib], the “brain accumulation, times higher than that of cisplatin” value in series [4] was 7 times. For the same compound, the “brain accumulation, times higher than that of erlotinib” value in series [4] is listed as greater than 3 times. The Percent control on SYK was 88%; in series [5], 9.9%; on ABL1-nonphosphorylated, 25%.

With `Cc1ccc(NC(=O)c2ccc(CN3CCN(C)CC3)cc2)cc1Nc1nccc(-c2cccnc2)n1` [Imatinib, reference compound], the remaining activity at 10 µM on PDGFRB turned out to be 0.1%; on EGFR(L861Q), 100%; on EGFR(T790M) it was 100%.
